{"source": "patent US20070203248A1", "about": "“Cardioprotective agents” (DABUR RESEARCH FOUNDATION., priority 2003, published 2007)", "key": {"[1]": {"experiment": "DPPH free radical scavenging assay in vitro", "format": "biochemical", "conditions": "for Mean percent Radical scavenging: DPPH, 5 minutes", "procedure": "The free radical scavenging potential of 5-Methoxytryptamine was evaluated by the 1,1 diphenyl-2 picryl hydrazyl (DPPH) assay as described (Hycon, Lee et al, Arch. Pharm. Res. 19 (3), 223-227). […] 5-Methoxytryptamine was dissolved in 3.5% ethanol in normal saline and screened for its radical scavenging activity in concentration ranging from 1-1000 ug/ml. 100 ul of 0.2 mM DPPH was incubated with 100 ul of varying concentrations of 5-Methoxy tryptamine in 96 well tissue culture plates for 20 seconds at room temperature. All experiments were carried out in triplicates. 3.5% ethanol in normal saline was similarly incubated with 0.2 mM DPPH in control experiments for evaluating the effect of the vehicle on radical scavenging. The change in absorbance of DPPH incubated with varying concentrations of 5-Methoxy tryptamine of the vehicle was read at 517 nm for every 60 secs for 5 minutes. The absorbance of 0.2 mM DPPH taken after incubating for 5 minutes at room temperature was the blank O.D. The percent free radical scavenging ability of 5-Methoxy tryptamine was calculated as defined below. Percent Free Radical scavenging=Blank OD at 5 minutes−Sample OD at 5 minutes×100/Blank OD at 5 minutes"}, "human tumour cell lines": {"test_system": "human tumour cell lines", "experiment": "MTT cytotoxicity assay, effect of 5-Methoxytryptamine on anticancer activity of Adriamycin", "format": "cell-based", "conditions": "5-Methoxytryptamine at its highest concentration 1 ug/ml; MCF7, DU145, MiaPaCa2, HT 29", "procedure": "Adriamycin was dissolved in saline immediately before use. […] 1 ug/ml."}, "[2]": {"test_system": "Adriamycin treated rat myocardium", "conditions": "for LP (lipid peroxidation), myocardium: 24 hours", "description": "The effect of 5-Methoxytryptamine on lipid peroxidation in Adriamycin treated myocardial tissue was quantitated by Thiobarbituric acid reactive substances based assay as described (Uchiyama and Mihara, M., Anal. Biochem. 86, 271-278, 1978). Briefly male Wistar rats of the age group 5-6 weeks were maintained on normal rat pellets ad libitum. Rats were divided into four groups viz Groups I, II, III and IV.\nGroup II, Animals treated with Adriamycin\n(§1) Group III: Animals treated with 5-Methoxytryptamine and Adriamycin.\n(§2) Group IV: Animals treated with 5 Methoxytryptamine\nEach group consisted of 5 animals. 30 mg/kg body weight of Adriamycin was administered intraperitoneally to animals in Groups II and III. The animals comprising group III, were injected intraperitoneally with 5-Methoxytryptamine in concentration ranging from 8.5-35 mg/kg body weight 30 minutes prior to the Adriamycin treatment. The animals comprising group IV, were injected intraperitoneally with 5-Methoxytryptamine in concentration ranging from 8.5-35 mg/kg body weight. 24 hours later, the beating hearts of the animals were excised by decapitation. The heart tissue was washed in ice cold saline twice, weighed and snap frozen at −70° C. for assaying for Lipid peroxidation.\nBriefly 200 mg of the live rat myocardial tissue was excised and homogenized in 2 ml of ice cold 10% Trichloro acetic acid buffer (TCA) buffer. To 200 ul of the homogenate thus obtained, 200 ul of 8.1% SDS, 1.5 ml of 20% Acetic acid, 1.5 ml of 0.8% of Thiobarbituric acid (TBA) and 1.0 ml of water was added in glass test tubes. The tubes were heated at 95° C. for 60 minutes. The mixture was cooled and diluted with 1 ml of double distilled water. A mixture of n-butanol and pyridine was prepared fresh in the ratio of 15:1 respectively. 5 ml of the n-butanol-pyridine mix was added to each tube containing the cardiac tissue homogenates. The tubes were centrifuged at 3000 rpm for 10 minutes at 4° C. 200 ul of the coloured liquid was collected from at the interphase of the aqueous and organic layers and the absorbance was measured spectrophotometrically at 532 nm. The control experiments contained only the TCA buffer treated similarly. The standard tubes contained Malonaldehyde in concentrations ranging from 2.5-25 uM. Malonaldehyde was dissolved in double distilled water. All experiments were carried out in triplicates. The extent of lipid peroxidation in the cardiac homogenates was expressed as uM/gm of the cardiac tissue. The extent of lipid peroxidation was calculated for the cardiac tissues of the animals comprising Groups I, II, III and IV."}, "[3]": {"test_system": "Adriamycin treated rat myocardium", "conditions": "for SOD (Superoxide Dismutase), myocardium: 24 hours", "protocol": "(§3) Briefly male Wistar rats of the age group 5-6 weeks were maintained on normal rat pellets ad libitum. Rats were divided into four groups viz. Groups I, II, III and IV.\n(§4) Group II: Animals treated with Adriamycin\nEach group consisted of 5 animals. 30 mg/kg body weight of Adriamycin was administered intraperitoneally to animals in Groups II and III. […] 24 hours later, the beating hearts of the animals were excised by decapitation. The heart tissue was washed in ice cold saline twice, weighed and frozen for assaying Superoxide Dismutase activity.\nBriefly, 200 mg of rat myocardial tissue was excised and homogenized in 2 ml of ice cold Tris sucrose buffer (pH 7.4). The homogenate was centrifuged at 10000 rpm, at 4° C. for 10 minutes, and the supernatent carefully aspirated and collected. For each experiment, 1.2 ml of sodium pyrophosphate buffer was taken in clean glass tubes. To this 100 ul of 186 uM Phenazine methosulphate solution, 300 ul of a 300 uM solution of Nitroblue tetrazolium and 600 ul of double distilled water was added and mixed well. 600 ul of the supernatent obtained earlier was added per tube. A solution of NADH of the concentration 780 uM was freshly prepared for the experiments. The reaction in the tubes was initiated by the addition of 200 ul of a 780 uM solution of NADH per tube. The tubes were incubated for 90 seconds at room temperature. The reaction was stopped by the addition of 1 ml of 100% glacial acetic acid per tube and the absorbance measured spectrophotometrically at 560 nM. All experiments were carried out in triplicates. The control experiments contained only ice cold Tris Sucrose buffer (pH 7.4) treated identically. The standard tubes contained the enzyme Superoxide Dimutase dissolved in double distilled water in concentrations ranging from 0.1 U to 20 Units treated identically as above. The enzyme activity in the tissue homogenates was quantitated by rate of decrease in optical density at 560 nm, and expressed as units/mg protein. The Superoxide Dismutase activity was calculated for the cardiac tissues of the animals comprising Groups I, II, III and IV."}, "[4]": {"test_system": "Adriamycin treated rat liver tissue", "conditions": "for LP (lipid peroxidation), liver: 24 hours", "protocol": "as §3, §4, §1\nGroup IV: Animals treated with 5-Methoxytryptamine\nEach group consisted of 5 animals. 30 mg/kg body weight of Adriamycin was administered intraperitoneally to animals in Groups II and III. The animals comprising group III, were injected intraperitoneally with 5-Methoxytryptamine in concentrations ranging from 8.5-35 mg/kg body weight 30 minutes prior to the Adriamycin treatment. The animals comprising group IV, were injected intraperitoneally with 5-Methoxytryptamine in concentrations ranging from 8.5-35 mg/kg body weight. 24 hours later, the liver tissue of the animals were excised. The liver tissue was washed in ice cold saline twice, weighed and snap frozen at −70° C. for assaying for Lipid peroxidation.\nBriefly 200 mg of the rat liver tissue was excised and homogenized in 2 ml of ice cold 10% Trichloro acetic acid buffer (TCA) buffer. To 200 ul of the homogenate thus obtained, 200 ul of 8.1% SDS, 1.5 ml of 20% Acetic acid, 1.5 ml of 0.8% of Thiobarbituric acid (TBA) and 1.0 ml of water was added in glass test tubes. The tubes were heated at 95° C. for 60 minutes. The mixture was cooled and diluted with 1 ml of double distilled water. A mixture of n-butanol and pyridine was prepared fresh in the ratio of 15:1 respectively. 5 ml of the n-butanol-pyridine mix was added to each tube containing the liver tissue homogenates. The tubes were centrifuged at 3000 rpm for 10 minutes at 4° C. 200 ul of the colored liquid was collected from the interphase of the aqueous and organic layers and the absorbance was measured spectrophotometrically at 532 nm. The control experiments contained only the TCA buffer treated similarly. The standard tubes contained Malonaldehyde in concentrations ranging from 2.5-25 uM. Malonaldehyde was dissolved in double distilled water. All experiments were carried out in triplicates. The extent of lipid peroxidation in the liver homogenates was expressed as uM/gm of the liver tissue. The extent of lipid peroxidation was calculated for the liver tissues of the animals comprising Groups I, II, III and IV."}, "[5]": {"test_system": "Adriamycin treated animals", "protocol": "The effect of 5-Methoxy tryptamine on circulating CK-MB levels was quantitated as described. Briefly male Wistar rats of the age group 5-6 weeks were maintained on normal rat pellets ad libidum. Rats were divided into four groups viz. Groups I, II, III and IV.\nas §4\n(§5) Group III: Animals treated with Adriamycin and 5-Methoxytryptamine\nGroup IV: Animals treated with 5-Methoxytryptamine.\nEach group consisted of 6 animals. 5 mg/kg of Adriamycin was administered intraperitoneally to animals of groups II and III as two equal divided doses once every seven days. The animals comprising Group III were injected intraperitoneally with 17.5 mg/kg of 5-Methoxytryptamine, as seven equal doses given every alternate day. The animals of the group III were injected with 5-Methoxytryptamine, 30 minutes prior to the Adriamycin injection. The animals comprising Group IV were treated with 17.5 mg/kg of 5-Methoxytryptamine as seven equal doses, given every alternate day. At the 41st day of the study, blood was collected from the retroorbital vein of all the animals in the study. The blood was kept at room temperature for 15 minutes, and spun at 3000 rpm for 15 minutes. […] The quantitation was carried out by kits procured from Bayer Diagnostics using RA 50 Chemistry Analyzer (Bayer Diagnostics), as per the manufacturers instructions."}, "[6]": {"test_system": "Adriamycin treated animals", "remark": "listed apart in the source", "protocol": "The effect of 5-Methoxytryptamine on circulating LDH levels was quantitated as described. Briefly male Wistar rats of the age group 5-6 weeks were maintained on normal rat pellets ad libidum. Rats were divided into four groups viz. Groups I, II, III and IV.\nas §4, §5, §2\nEach group consisted of 6 animals. 5 mg/kg of Adriamycin was administered intraperitoneally to animals of groups II and III as two equal divided doses once every seven days. The animals comprising Group III were injected intraperitoneally with 17.5 mg/kg of 5-Methoxytryptamine, as seven equal doses given every alternate day. The animals of the group III were injected with 5-Methoxytryptamine, 30 minutes prior to the Adriamycin injection. The animals comprising Group IV were treated with 17.5 mg/kg of 5-Methoxytryptamine as seven equal doses, given every alternate day. At the 41st day of the study, blood was collected from the retroorbital vein of all the animals in the study. The blood was kept at room temperature for 15 minutes, and spun at 3000 rpm for 15 minutes. […] The quantitation was carried out by kits procured from Bayer Diagnostics using RA 50 Chemistry Analyzer (Bayer Diagnostics), as per the manufacturer's instructions."}, "[7]": {"conditions": "8.5-35 mg/kg, 30 mg/kg doxorubicin"}, "[8]": {"conditions": "Group IV A: 5 MT 8.5 mg/kg i.p. alone"}, "[9]": {"conditions": "Group IV B: 5 MT 17 mg/kg i.p. alone"}, "[10]": {"conditions": "Group IV C: 5 MT 35 mg/kg i.p. alone"}, "[11]": {"conditions": "Group IV: 5-Methoxytryptamine 17.5 mg/kg as seven doses every alternate day, alone, serum, day 41"}}, "note": "Values joined by “and” are separate entries in the source; they are usually repeats but may differ in a detail not shown here. Equal values may be shown once. Read-outs that look alike come from different tables or passages of the source."}
{"smiles": "COc1ccc2[nH]cc(CCN)c2c1", "note": "[5-Methoxytryptamine]", "values": [{"measurement": "Mean percent Radical scavenging", "setting": "[1]; 31 ug/ml", "result": "10 ± 4.3", "unit": "%"}, {"measurement": "Mean percent Radical scavenging", "setting": "[1]; 62.5 ug/ml", "result": "25 ± 5.0", "unit": "%"}, {"measurement": "Mean percent Radical scavenging", "setting": "[1]; 125 ug/ml", "result": "75.4 ± 5.5", "unit": "%"}, {"measurement": "Mean percent Radical scavenging", "setting": "[1]; 250 ug/ml", "result": "85.24 ± 4.8", "unit": "%"}, {"measurement": "Mean percent Radical scavenging", "setting": "[1]; 500 ug/ml", "result": "87.4 ± 5.0", "unit": "%"}, {"measurement": "Mean percent Radical scavenging", "setting": "[1]; 1000 ug/ml", "result": "88.25% and 88.25 ± 5.1%"}, {"measurement": "Concentration range in which free radicals are scavenged", "setting": "[1]; DPPH in vitro", "result": "31 to 1000", "unit": "µg/mL"}, {"measurement": "Effect of addition on ED50 values of the cytotoxicity of Adriamycin", "setting": "human tumour cell lines", "result": "is not altered"}, {"measurement": "Effect on lipid peroxidation in rat myocardial tissue, alone", "setting": "[2]; 8.5-35 mg/kg alone", "result": "did not alter the lipid peroxidation"}, {"measurement": "Effect on lipid peroxidation in rat myocardial tissue treated with doxorubicin", "setting": "[2]; [7]", "result": "inhibits the lipid peroxidation"}, {"measurement": "LP (lipid peroxidation), myocardium", "setting": "[2]; [8]", "result": "535 ± 12.5", "unit": "µmol/g"}, {"measurement": "LP (lipid peroxidation), myocardium", "setting": "[2]; [9]", "result": "500 ± 14.5", "unit": "µmol/g"}, {"measurement": "LP (lipid peroxidation), myocardium", "setting": "[2]; [10]", "result": "513 ± 12.3", "unit": "µmol/g"}, {"measurement": "Effect on Superoxide Dismutase activity in rat myocardium, alone", "setting": "[3]; 8.5-35 mg/kg alone", "result": "did not alter the Superoxide Dismutase activity"}, {"measurement": "Effect on Superoxide Dismutase activity in rat myocardium treated with Doxorubicin", "setting": "[3]; [7]", "result": "increases the Superoxide Dismutase activity"}, {"measurement": "SOD (Superoxide Dismutase), myocardium", "setting": "[3]; [8]", "result": "32 ± 2.5", "unit": "U/mg"}, {"measurement": "SOD (Superoxide Dismutase), myocardium", "setting": "[3]; [9]", "result": "30 ± 2.9", "unit": "U/mg"}, {"measurement": "SOD (Superoxide Dismutase), myocardium", "setting": "[3]; [10]", "result": "34 ± 4.5", "unit": "U/mg"}, {"measurement": "Effect on lipid peroxidation in rat liver tissue, alone", "setting": "[4]; 8.5-35 mg/kg alone", "result": "does not alter the lipid peroxidation"}, {"measurement": "LP (lipid peroxidation), liver", "setting": "[4]; [8]", "result": "601 ± 16.5", "unit": "µmol/g"}, {"measurement": "LP (lipid peroxidation), liver", "setting": "[4]; [9]", "result": "625 ± 15.5", "unit": "µmol/g"}, {"measurement": "LP (lipid peroxidation), liver", "setting": "[4]; [10]", "result": "630 ± 16.3", "unit": "µmol/g"}, {"measurement": "Effect on CK-MB levels in Adriamycin treated animals", "setting": "[5]; 17.5 mg/kg, Adriamycin 5 mg/kg", "result": "reduces the CK-MB levels"}, {"measurement": "CK - MB", "setting": "[5]; [11]", "result": "379 ± 26", "unit": "U/L"}, {"measurement": "Effect on LDH levels in Adriamycin treated animals", "setting": "[6]; 17.5 mg/kg, Adriamycin 5 mg/kg", "result": "reduces the LDH levels"}, {"measurement": "LDH", "setting": "[6]; [11]", "result": "1009 ± 26", "unit": "U/L"}]}
